Assay results: patent publication US7101664B2, “Bioactive oligopeptides” (Polymun Scientific Immunbiologische Forschung GmbH, priority 1999, dated 2006)
Where two headings read alike, the source gives them in different places. Where a SMILES comes first, the peptide text is derived from it. Where no end group is shown, it is not given here. [ ]: non-standard residue; d: D form. βAla = NCCC(=O)O

Legend:
Mouse hybridoma CAU 96 [1] = test: Batch T-flask culture of hybridoma with oligopeptide supplements (Example 2); type: cell-based; conditions: for growth stimulating effect on the hybridoma cell line (in words): Tables 3 to 7
Description: Cells: Mouse hybridoma CAU 96 producing monoclonal lgG2a
Starting viable cell density is 310000 (3.1*10^5) cells per ml.

Mouse hybridoma CAU 96 [2] = test: Amino acid analysis of the culture medium during cultivation of hybridoma cells with tetrapeptide
Description: (§1) Cells: Mouse hybridoma CAU 96 producing monoclonal lgG2a antibody.
(§2) Medium: DMEM/F-12/RPMI 1640 (2:1:1) supplemented with Basal Medium Eagle (BME) amino acids, 2.0 mM glutamine, 15 mM HEPES (N-2-Hydroxyethylpiperazine-N′-2-ethanesulfonic acid), 2.0 g/l sodium bicarbonate and 0.4 mM ferric citrate.
(§3) Culture mode: 25 cm^3 T-flasks (Nunc) culture volume 6.0 ml, placed at 37° C. in an incubator with 5% CO^2; starting viable cell density is 3.1×10^5 cells per ml.
(§4) Preparation of samples of amino acid analysis: Cells are removed by low-speed centrifugation and macromolecular components are removed by ultrafiltration.

Mouse hybridoma CAU 96 [3] = tested on: Mouse hybridoma CAU 96
Description: as §1, §2, §3, §4

Mouse hybridoma CAU 96 [4] = tested on: Mouse hybridoma CAU 96; remark: listed apart in the source
Description: Medium: DMEM/F-12/RPMI 1640 (2:1:1) supplemented with BME amino acids, MEM non essential amino acids, 2.0 mM glutamine, 15 mM HEPES, 2.0 g/L sodium bicarbonate and 0.4 mM ferric citrate.
Culture mode: 25 cm^2 T-flasks (Supplier: Nunc), culture volume 6.0 ml, placed at 37° C. in an incubator with 5% CO2; starting viable cell density is 3.1×10^5 cells per ml.

[5] = Table 4, Day 6, supplement 0.2% w/v
[6] = Table 3, Day 7, supplement 0.2% w/v
[7] = Table 5, Day 6, supplement 0.2% w/v
[8] = Table 6, Day 6, supplement 0.1% w/v
[9] = Table 6, Day 6, supplement 0.2% w/v
[10] = Table 4, Day 6, supplement 0.1% w/v
[11] = Table 7, Day 6, supplement 0.1% w/v
[12] = Table 7, Day 6, supplement 0.2% w/v
[13] = Table 7, Day 6, supplement 0.05% w/v
[14] = Table 5, Day 6, supplement 0.05% w/v
[15] = Table 5, Day 6, supplement 0.1% w/v
[16] = Table 5, Day 6, supplement 0.3% w/v

C[C@H](N)C(=O)O [Alanine, reference compound]
Viable cell number % of control (Mouse hybridoma CAU 96 [1]): 94 % of control
Monoclonal antibody (Mouse hybridoma CAU 96 [1]; [5]): 110 mg/L
Viability (Mouse hybridoma CAU 96 [1]; [5]): 60%
Viable cell number (Mouse hybridoma CAU 96 [1]; [5]): 1030 cells/μL
growth stimulating effect on the hybridoma cell line (in words) (Mouse hybridoma CAU 96 [1]): insignificant

NCC(=O)O [Glycine, reference compound]
Viable cell number % of control (Mouse hybridoma CAU 96 [1]): 102 % of control
Monoclonal antibody (Mouse hybridoma CAU 96 [1]; [6]): 160 mg/L
Viability (Mouse hybridoma CAU 96 [1]; [6]): 60%
Viable cell number (Mouse hybridoma CAU 96 [1]; [6]): 1080 cells/μL
growth stimulating effect on the hybridoma cell line (in words) (Mouse hybridoma CAU 96 [1]): does not significantly stimulate cell growth

N[C@@H](CO)C(=O)O [Serine, reference compound]
Viable cell number % of control (Mouse hybridoma CAU 96 [1]): 104 % of control
Monoclonal antibody (Mouse hybridoma CAU 96 [1]; [7]): 111 mg/L
Viability (Mouse hybridoma CAU 96 [1]; [7]): 63%
Viable cell number (Mouse hybridoma CAU 96 [1]; [7]): 1190 cells/μL
growth stimulating effect on the hybridoma cell line (in words) (Mouse hybridoma CAU 96 [1]): insignificant

C[C@H](N)C(=O)N[C@@H](C)C(=O)N[C@@H](C)C(=O)N[C@@H](C)C(=O)O [Tetraalanine, Ala-Ala-Ala-Ala] (H-AAAA-OH; N-terminus and C-terminus assumed)
Viability (Mouse hybridoma CAU 96 [1]; 0.1 % w/v): 66%
Viability (Mouse hybridoma CAU 96 [1]; 0.2 % w/v): 72%
Amino acid concentration, Day 0 (Mouse hybridoma CAU 96 [2]; Table 2, culture medium with tetraalanine, day 0): 1.84
Amino acid concentration, Day 4 (Mouse hybridoma CAU 96 [2]; Table 2, culture medium with tetraalanine, day 4): 1.28
Amino acid concentration, Difference (Mouse hybridoma CAU 96 [2]; Table 2, day 4 minus day 0): −0.56

NCC(=O)NCC(=O)NCC(=O)NCC(=O)O [Tetraglycine, Gly-Gly-Gly-Gly] (H-GGGG-OH; N-terminus and C-terminus assumed)
Viable cell number % of control (Mouse hybridoma CAU 96 [1]): 176 % of control
Viability (Mouse hybridoma CAU 96 [1]; 0.2 % w/v): 80%
Amino acid concentration, Day 0 (Mouse hybridoma CAU 96 [3]): 7.14 mM
Amino acid concentration, Day 4 (Mouse hybridoma CAU 96 [3]): 6.55 mM
Viability (Mouse hybridoma CAU 96 [4]; 0.1 % w/v): 78%
Viability (Mouse hybridoma CAU 96 [4]; 0.2 % w/v): 77%
Viability (Mouse hybridoma CAU 96 [4]; 0.3 % (w/v)): 80%

C[C@@H](O)[C@H](N)C(=O)O [Threonine, reference compound]
Viable cell number % of control (Mouse hybridoma CAU 96 [1]): 97 % of control
Monoclonal antibody (Mouse hybridoma CAU 96 [1]; [7]): 114 mg/L
Viability (Mouse hybridoma CAU 96 [1]; [7]): 59%
Viable cell number (Mouse hybridoma CAU 96 [1]; [7]): 1100 cells/μL

NCC(=O)NCC(=O)NCC(=O)O [Triglycine, Gly-Gly-Gly] (H-Gly-Gly-Gly-OH)
Viability (Mouse hybridoma CAU 96 [1]; 0.1 % w/v): 78%
Monoclonal antibody (Mouse hybridoma CAU 96 [1]; [6]): 160 mg/L
Viable cell number (Mouse hybridoma CAU 96 [1]; [6]): 1660 cells/μL
Monoclonal antibody (Mouse hybridoma CAU 96 [1]; [8]): 98 mg/L
Viable cell number (Mouse hybridoma CAU 96 [1]; [8]): 1350 cells/μL
Monoclonal antibody (Mouse hybridoma CAU 96 [1]; [9]): 89 mg/L
Viable cell number (Mouse hybridoma CAU 96 [1]; [9]): 1300 cells/μL

NCCC(=O)O [β-alanine, reference compound]
Viable cell number % of control (Mouse hybridoma CAU 96 [1]): 106 % of control
Monoclonal antibody (Mouse hybridoma CAU 96 [1]; [7]): 105 mg/L
Viability (Mouse hybridoma CAU 96 [1]; [7]): 60%
Viable cell number (Mouse hybridoma CAU 96 [1]; [7]): 1210 cells/μL
growth stimulating effect on the hybridoma cell line (in words) (Mouse hybridoma CAU 96 [1]): insignificant

Ala-Ala-Ala [Trialanine]
Monoclonal antibody (Mouse hybridoma CAU 96 [1]; [10]): 130 mg/L
Viability (Mouse hybridoma CAU 96 [1]; [10]): 69%
Viable cell number (Mouse hybridoma CAU 96 [1]; [10]): 1390 cells/μL
Monoclonal antibody (Mouse hybridoma CAU 96 [1]; [5]): 132 mg/L
Viability (Mouse hybridoma CAU 96 [1]; [5]): 70%
Viable cell number (Mouse hybridoma CAU 96 [1]; [5]): 1420 cells/μL

Diglycine
Viable cell number % of control (Mouse hybridoma CAU 96 [1]): 114 % of control
Monoclonal antibody (Mouse hybridoma CAU 96 [1]; [6]): 165 mg/L
Viability (Mouse hybridoma CAU 96 [1]; [6]): 70%
Viable cell number (Mouse hybridoma CAU 96 [1]; [6]): 1210 cells/μL

Gly-Arg-Gly
Monoclonal antibody (Mouse hybridoma CAU 96 [1]; [8]): 106 mg/L
Viability (Mouse hybridoma CAU 96 [1]; [8]): 65%
Viable cell number (Mouse hybridoma CAU 96 [1]; [8]): 1360 cells/μL
Monoclonal antibody (Mouse hybridoma CAU 96 [1]; [9]): 121 mg/L
Viability (Mouse hybridoma CAU 96 [1]; [9]): 66%
Viable cell number (Mouse hybridoma CAU 96 [1]; [9]): 1270 cells/μL

Gly-Asp-Gly
Monoclonal antibody (Mouse hybridoma CAU 96 [1]; [8]): 98 mg/L
Viability (Mouse hybridoma CAU 96 [1]; [8]): 64%
Viable cell number (Mouse hybridoma CAU 96 [1]; [8]): 1340 cells/μL
Monoclonal antibody (Mouse hybridoma CAU 96 [1]; [9]): 92 mg/L
Viability (Mouse hybridoma CAU 96 [1]; [9]): 70%
Viable cell number (Mouse hybridoma CAU 96 [1]; [9]): 1420 cells/μL

Gly-Gly-Glu-Ala (GGEA)
Monoclonal antibody (Mouse hybridoma CAU 96 [1]; [11]): 100 mg/L
Viability (Mouse hybridoma CAU 96 [1]; [11]): 82%
Viable cell number (Mouse hybridoma CAU 96 [1]; [11]): 1350 cells/μL
Monoclonal antibody (Mouse hybridoma CAU 96 [1]; [12]): 113 mg/L
Viability (Mouse hybridoma CAU 96 [1]; [12]): 77%
Viable cell number (Mouse hybridoma CAU 96 [1]; [12]): 1280 cells/μL

Gly-Gly-Gly-Gly-Gly [Pentaglycine]
Viable cell number % of control (Mouse hybridoma CAU 96 [1]): 190 % of control
Monoclonal antibody (Mouse hybridoma CAU 96 [1]; [6]): 165 mg/L
Viability (Mouse hybridoma CAU 96 [1]; [6]): 82%
Viable cell number (Mouse hybridoma CAU 96 [1]; [6]): 2020 cells/μL

Gly-Gly-Gly-Gly-Gly-Gly [Hexaglycine]
Viable cell number % of control (Mouse hybridoma CAU 96 [1]): 183 % of control
Monoclonal antibody (Mouse hybridoma CAU 96 [1]; [6]): 160 mg/L
Viability (Mouse hybridoma CAU 96 [1]; [6]): 79%
Viable cell number (Mouse hybridoma CAU 96 [1]; [6]): 1940 cells/μL

Gly-Gly-His-Gly (GGHG)
Monoclonal antibody (Mouse hybridoma CAU 96 [1]; [11]): 93 mg/L
Viability (Mouse hybridoma CAU 96 [1]; [11]): 77%
Viable cell number (Mouse hybridoma CAU 96 [1]; [11]): 1360 cells/μL
Monoclonal antibody (Mouse hybridoma CAU 96 [1]; [12]): 84 mg/L
Viability (Mouse hybridoma CAU 96 [1]; [12]): 71%
Viable cell number (Mouse hybridoma CAU 96 [1]; [12]): 1180 cells/μL

Gly-Gly-Lys-Ala (GGKA)
Monoclonal antibody (Mouse hybridoma CAU 96 [1]; [11]): 118 mg/L
Viability (Mouse hybridoma CAU 96 [1]; [11]): 79%
Viable cell number (Mouse hybridoma CAU 96 [1]; [11]): 1310 cells/μL
Monoclonal antibody (Mouse hybridoma CAU 96 [1]; [12]): 134 mg/L
Viability (Mouse hybridoma CAU 96 [1]; [12]): 78%
Viable cell number (Mouse hybridoma CAU 96 [1]; [12]): 1290 cells/μL

Gly-His-Gly
Monoclonal antibody (Mouse hybridoma CAU 96 [1]; [8]): 121 mg/L
Viability (Mouse hybridoma CAU 96 [1]; [8]): 65%
Viable cell number (Mouse hybridoma CAU 96 [1]; [8]): 1180 cells/μL
Monoclonal antibody (Mouse hybridoma CAU 96 [1]; [9]): 144 mg/L
Viability (Mouse hybridoma CAU 96 [1]; [9]): 66%
Viable cell number (Mouse hybridoma CAU 96 [1]; [9]): 900 cells/μL

Gly-Lys-Gly
Monoclonal antibody (Mouse hybridoma CAU 96 [1]; [8]): 128 mg/L
Viability (Mouse hybridoma CAU 96 [1]; [8]): 67%
Viable cell number (Mouse hybridoma CAU 96 [1]; [8]): 1250 cells/μL
Monoclonal antibody (Mouse hybridoma CAU 96 [1]; [9]): 154 mg/L
Viability (Mouse hybridoma CAU 96 [1]; [9]): 62%
Viable cell number (Mouse hybridoma CAU 96 [1]; [9]): 1100 cells/μL

Gly-βAla-Gly-Gly (G[βAla]GG)
Monoclonal antibody (Mouse hybridoma CAU 96 [1]; [13]): 121 mg/L
Viability (Mouse hybridoma CAU 96 [1]; [13]): 68%
Viable cell number (Mouse hybridoma CAU 96 [1]; [13]): 1100 cells/μL
Monoclonal antibody (Mouse hybridoma CAU 96 [1]; [11]): 129 mg/L
Viability (Mouse hybridoma CAU 96 [1]; [11]): 65%
Viable cell number (Mouse hybridoma CAU 96 [1]; [11]): 1150 cells/μL
Monoclonal antibody (Mouse hybridoma CAU 96 [1]; [12]): 150 mg/L
Viability (Mouse hybridoma CAU 96 [1]; [12]): 72%
Viable cell number (Mouse hybridoma CAU 96 [1]; [12]): 1270 cells/μL

Ser-Ser-Ser [Triserine]
Monoclonal antibody (Mouse hybridoma CAU 96 [1]; [14]): 109 mg/L
Viability (Mouse hybridoma CAU 96 [1]; [14]): 61%
Viable cell number (Mouse hybridoma CAU 96 [1]; [14]): 1200 cells/μL
Monoclonal antibody (Mouse hybridoma CAU 96 [1]; [15]): 112 mg/L
Viability (Mouse hybridoma CAU 96 [1]; [15]): 65%
Viable cell number (Mouse hybridoma CAU 96 [1]; [15]): 1340 cells/μL
Monoclonal antibody (Mouse hybridoma CAU 96 [1]; [7]): 126 mg/L
Viability (Mouse hybridoma CAU 96 [1]; [7]): 70%
Viable cell number (Mouse hybridoma CAU 96 [1]; [7]): 1550 cells/μL
Monoclonal antibody (Mouse hybridoma CAU 96 [1]; [16]): 142 mg/L
Viability (Mouse hybridoma CAU 96 [1]; [16]): 78%
Viable cell number (Mouse hybridoma CAU 96 [1]; [16]): 1610 cells/μL

Thr-Thr-Thr [Trithreonine]
Monoclonal antibody (Mouse hybridoma CAU 96 [1]; [14]): 122 mg/L
Viability (Mouse hybridoma CAU 96 [1]; [14]): 67%
Viable cell number (Mouse hybridoma CAU 96 [1]; [14]): 1310 cells/μL
Monoclonal antibody (Mouse hybridoma CAU 96 [1]; [15]): 130 mg/L
Viability (Mouse hybridoma CAU 96 [1]; [15]): 70%
Viable cell number (Mouse hybridoma CAU 96 [1]; [15]): 1370 cells/μL
Monoclonal antibody (Mouse hybridoma CAU 96 [1]; [7]): 152 mg/L
Viability (Mouse hybridoma CAU 96 [1]; [7]): 73%
Viable cell number (Mouse hybridoma CAU 96 [1]; [7]): 1450 cells/μL
